Values joined by “and” are separate entries in the source; they are usually repeats but may differ in a detail not shown here. Equal values may be shown once.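 Interpolation was linear, between the two tested concentrations surrounding the appropriate level; five concentrations were tested over 48 hours in 96-well plates. GI50 = concentration required for 50% inhibition of growth. At the TGI there is no net growth.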
Assays:
Assay in all cases: DTP human tumour cell line panel, 48 h
[1] = test system: CAKI-1 renal
[2] = test system: COLO 205 colon
[3] = test system: EKVX NSCLC
[4] = test system: NCI-H226 lung
[5] = test system: NCI-H522 lung
[6] = test system: SF-295 CNS
[7] = test system: SN12C renal
[8] = test system: SNB-19 CNS
[9] = test system: U251 CNS
[10] = test system: UO-31 renal

| SMILES | GI50 [1] | TGI [1] [µM] | GI50 [2] [µM] | TGI [2] [µM] | GI50 [3] [µM] | TGI [3] | GI50 [4] | TGI [4] [µM] | GI50 [5] [µM] | TGI [5] [µM] | GI50 [6] [µM] | TGI [6] | GI50 [7] | TGI [7] [µM] | GI50 [8] | TGI [8] [µM] | GI50 [9] [µM] | TGI [9] [µM] | GI50 [10] | TGI [10] |
| --- | --- | --- | --- | --- | --- | --- | --- | --- | --- | --- | --- | --- | --- | --- | --- | --- | --- | --- | --- | --- |
| O=C(CN1CCN(c2ccc(Cl)cc2)CC1)N1CCN(c2nnc(-c3ccccc3)c(-c3ccccc3)n2)CC1 | 4.93 µM | > 100 | 3.47 | > 100 | 7.57 | > 100 µM | > 100 µM | > 100 | 16.2 | > 100 | 4.88 | > 100 µM | 8.23 µM | > 100 | > 100 µM | > 100 | 8.02 | > 100 | 4.41 µM | > 100 µM |
| CC(C)[C@@H]1CC[C@@H]2[C@@H]1[C@H](OC(=O)/C=C/c1ccccc1)[C@]1(C(C)C)C[C@@H](OC(=O)CO)[C@@]2(C)O1 | 0.133 µM | 6.73 | 6.12 | 12.8 | 4.34 | 8.8 µM | 5.27 µM | 10.9 | 6.19 | 13.2 | 5.07 | 9.56 µM | 3.39 µM | 8.04 | 5.37 µM | 10.8 | 5.54 | 10.6 | 0.011 µM | 0.0857 µM |
| Oc1cc2ccccc2cc1-c1n[nH]c(=S)n1-c1ccc(Cl)cc1 | 12.5 µM | 39.4 | 41.7 | > 100 | 28.7 | > 100 µM | 23.7 µM | 85 | 5.65 | 35.2 | 13.1 | > 100 µM | 10.8 µM | 55.2 | 25.4 µM | > 100 | 13 | 90.9 | 23.2 µM | 71.8 µM |
| NC[C@@](O)(c1ccc(Cl)cc1)c1ccc(-c2cn[nH]c2)cc1 | 0.73 µM and 1.27 µM | – | 1.48 | 3.18 | 0.556 | > 10 µM | 1.42 µM and 2.19 µM | > 100 | 1.45 | 3.53 | 0.969 | 4.62 µM | 2.39 µM and 1.88 µM | > 100 | 3.75 µM and 1.82 µM | – | 1.49 | 3 | 0.583 µM and 0.747 µM | – |
| O=C(Nc1ccc(Br)cc1F)c1cc(Br)ccc1O | 0.456 µM | 4.11 | 2.95 | 9.11 | 1.03 | 11.7 µM | 0.688 µM | 7.76 | 0.344 | 5.38 | 1.58 | 3.56 µM | 0.519 µM | 6.39 | 0.502 µM | 27.9 | 0.64 | 13.3 | 0.4 µM | 2.8 µM |
| O=c1/c(=C/c2ccc3c(c2)OCO3)sc2nnc(-c3ccco3)n12 | – | > 100 | – | > 100 | – | > 100 µM | – | > 100 | – | > 100 | – | > 100 µM | – | > 100 | – | > 100 | – | > 100 | – | > 100 µM |
| COc1ccc(C#CCC(OC2OC(CO)C(O)C(O)C2O)C(O)c2ccc(OC)c(OC)c2)cc1OC (centres undefined) | – | > 100 | – | > 100 | – | > 100 µM | – | > 100 | – | > 100 | – | > 100 µM | – | > 100 | – | > 100 | – | > 100 | – | > 100 µM |
| CC(C)Oc1ccc(C(=O)N[C@H](CNC(=O)CN(C)C)Cc2ccc(-c3cn4cccc([C@H](C)O)c4n3)cc2)cc1Cl | 0.538 µM | 17.9 | 0.0396 | 13.2 | 0.0547 | 21.6 µM | 10.9 µM | 28.8 | 0.0229 | 0.0698 | 0.0372 | 14.6 µM | 0.0661 µM | 20.4 | 0.0625 µM | 23.9 | 0.0534 | 19.2 | 2.56 µM | 19.1 µM |
| CCC/C(=N\NC(=O)c1cc2ccccc2cc1O)C(CC)C(=O)CCC(=O)N(Cc1ccccc1)Cc1ccccc1 (centres undefined) | – | > 100 | – | 69.5 | – | > 100 µM | – | > 100 | – | > 100 | – | > 100 µM | – | > 100 | – | > 100 | – | > 100 | – | > 100 µM |
| O=C(/C=C/c1cccnc1)c1ccccc1O | 17.3 µM | 42.4 | 14.6 | 30.1 | 34.7 | > 100 µM | 20 µM | 51.7 | 16.6 | 48.7 | 16.6 | 41.7 µM | 24.4 µM | 81.9 | 20.3 µM | 62.5 | 22.2 | 81.1 | 13.4 µM | 28.9 µM |
| O=C(c1ccc2c3c(ccc(C(=O)C(F)(F)F)c13)CC2)C(F)(F)F | – | > 100 | – | 44.1 | – | > 100 µM | – | > 100 | – | 98.9 | – | > 100 µM | – | > 100 | – | > 100 | – | > 100 | – | > 100 µM |
| Cc1cc2c(cc1C)[n+](=O)c(C(=O)/C=C/c1ccccc1Cl)c(C)n2[O-] | – | 43.2 | – | 36.9 | – | > 100 µM | – | > 100 | – | 26.7 | – | > 100 µM | – | > 100 | – | > 100 | – | 84.4 | – | 48.2 µM |
| COc1cc(-c2cc(CCC(=O)Nc3ccccc3[N+](=O)[O-])n(-c3ccc([N+](=O)[O-])cc3[N+](=O)[O-])n2)ccc1O | > 100 µM | > 100 | > 100 | > 100 | > 100 | > 100 µM | > 100 µM | > 100 | > 100 | > 100 | – | > 10 µM | > 100 µM | > 100 | > 100 µM | > 100 | > 100 | > 100 | > 100 µM | > 100 µM |
| CC(=O)OCC1OC(n2c(-c3ccccc3)c(C)c(C)c(C#N)c2=S)C(OC(C)=O)C(OC(C)=O)C1OC(C)=O (centres undefined) | – | > 50 | – | > 100 | – | 46.9 µM and 77 µM | – | > 100 | – | > 100 | – | > 50 µM and 66.4 µM | 48.3 µM and > 100 µM | > 100 | 17.9 µM and 44.9 µM | > 100 | – | 34.6 | > 50 µM and 12 µM | > 50 µM and 37.9 µM |
| CCC(/C(=N\Nc1c(Cl)cc(Cl)cc1Cl)c1ccccc1)n1ccnc1C (centres undefined) | – | 25.8 | – | 24.1 | – | 35.9 µM | – | 35 | – | 18.1 | – | 24.7 µM | – | 26.4 | – | 28.5 | – | 28.4 | – | 20.1 µM |
| O=C1c2ccccc2C(=O)c2c1ccc1c2OCO1 | – | > 100 | – | > 100 | – | > 100 µM | – | > 100 | – | > 100 | – | > 100 µM | – | > 100 | – | > 100 | – | > 100 | – | > 100 µM |
| CC1=C(C(=O)Nc2ccccc2C)C(c2ccc(C3C(C(=O)Nc4ccccc4C)=CNC=C3C(=O)Nc3ccccc3C)cc2)C(C(=O)Nc2ccccc2C)=C(C)N1 | – | 45.7 | – | 50.1 | – | 40.7 µM | – | 33.5 | – | 18.9 | – | 37.7 µM | – | 21.9 | – | 49.1 | – | 24.7 | – | 40 µM |

Source: PubChem BioAssay (NCI)
